From patent US9879020B2, “GABAA agonists and methods of using to control airway hyperresponsiveness and inflammation in asthma” (priority 2012, dated 2018)
“And” between values parts separate entries of the source, which are not always exact repeats. Equal entries are not always repeated. “Also recorded” adds a separate entry of the source. Where two headings read alike, the source gives them in different places.

Tests used:
[1] = system: Guinea pig (GP) tracheal rings; assay: Isoproterenol-mediated relaxation of acetylcholine-contracted guinea pig tracheal rings with α4 GABAA selective agonist; settings: for potentiation of isoproterenol-mediated relaxation: single dose 500 uM THIP or 200 uM taurine, acetylcholine pre-contracted; for EC50: Cavia porcellus, read-out: EC50 of isoproterenol relaxation concentration-response curve
GABAA receptors [2] = assay: Whole cell voltage clamp electrophysiology (Fluxion microfluidic plate) of human airway smooth muscle cells; type: cell-based
Method: (§1) Human immortalized bronchial smooth muscle cell lines prepared as described were grown to confluence in M199 media (Gibco) containing 10% fetal bovine serum, 0.25 ng/ml epidermal growth factor, 1 ng/ml fibroblast growth factor, ITS supplement (1 mg/ml insulin, 0.55 mg/ml transferrin, 0.67 ug/ml sodium selenium) and antibiotics (100 units/ml penicillin G sodium, 100 μg/ml streptomycin sulfate, 0.25 μg/ml amphotericin B) in a humidified atmosphere of 5% CO2/95% air at 37° C. Twenty four hours prior to study, cells were fed with serum and growth factor free media.
On the day of the assay, human airway smooth muscle cells (prepared as described in Reference Examples 1 and 2) were released from collagen-coated plates with collagenase type IV (Sigma C5138; 500 units/ml). The cells were resuspended in external buffer solution (In mM: NaCl 147, MgCl2 2, CaCl2 2, HEPES 10, dextrose 10; pH 7.2, osmolarity 320 mOsm) and rocked at room temperature to allow cells to obtain a spherical shape. Approximately 1 million cells were centrifuged (300×g, 3 min), washed ×2 in external buffer, and loaded (final volume of 400 uL) into a Fluxion microfluidic plate with each experimental group representing an ordered arrangement of 20 cells in parallel whole cell configuration. Following generation of adequate cellular membrane seals (40-120 MΩ), whole cell recordings were obtained under voltage clamp conditions (−80 mV) to a dose response to THIP (0.3 uM-300 uM). In separate assays cells were also co-treated simultaneously with 20 uM gabazine (GABAA receptor antagonist) and 25 uM THIP. In addition, to confirm that THIP-induced currents were due to chloride efflux, in separate experiments the intracellualar buffer (in mM: MgCl2 4, EGTA 10, HEPES 10, CsCl 130, Mg-ATP 4, CsOH 10, pH 7.2, 290 mOsM) was modified by replacing […] CsCl with 140 Cs gluconate to inhibit the magnitude of the […] current at −80 mV.

GABAA receptors [3] = assay: FLIPR membrane potential fluorescent dye assay in cultured human airway smooth muscle cells; type: cell-based; settings: for antagonism of THIP-induced fluorescent / membrane potential changes: picrotoxin 200 uM, THIP 500 uM and 1 mM
Method: as §1
To determine whether activation of GABAA receptors induces membrane potential changes in cultured human airway smooth muscle cells the FLIPR in vitro fluorescent dye assay (Molecular Devices) was used. Human airway smooth muscle cells (prepared as described in Reference Examples 1 and 2) were grown to 100% confluence in 96 well black-walled plates and were washed with warmed (37° C.) low chloride buffer (consisting of in mM: 160 sodium-D-gluconate, 4.5 potassium-D-gluconate, 2 CaCl2, 1 MgCl2, 10 D-glucose, and 10 Hepes pH 7.4) four times. A stock solution (100% dye) of FLIPR blue dye was prepared by reconstitution of 1 vial (125 mg) with 100 ml of the low chloride buffer (assay buffer). A 50% working stock was prepared by further diluting the reconstituted blue dye 1:1 with assay buffer and was used to load cells (90 ul/well) over 20 minutes at 37° C. All reagents were dissolved in assay buffer. Baseline fluorescence was measured for 3 min prior to the first control additions (assay buffer). Three minutes later, airway smooth muscle cells were exposed to varying concentrations of THIP (0-10 mM) to determine a dose response. The fluorescence produced by membrane potential change following solution additions was quantified after subtracting changes induced by assay buffer alone. For subsequent antagonist assays, the first solution injected was either assay buffer, vehicle control (0.05% DMSO final), or the GABAA receptor antagonist picrotoxin (200 uM final) followed THIP (either 0.5 or 1 mM).

human Jurkat E6-1 cells = assay: Automated patch clamp (IonFlux) for potentiation of GABA, membrane polarization in Jurkat E6-1 cells; type: cell-based; settings: tested with 0.1 μM GABA; preliminary assay development studies
Method: Inserts show inward rectifying currents ([…]) at various doses. Compounds tested with 0.1 μM GABA. Curves show average of four determinations at indicated doses and standard deviations.
Both compounds were investigated using a CD4+ T-lymphocyte cell line (Jurkat E6-1) for potentiation of GABA using automated patch clamp (IonFlux). In contrast to manual patch clamp assays; this high throughput system enables dose dependent efficacy testing of more than 20 test conditions per day.

[4] = system: GABAAR containing single α-subunits; assay: Patch clamp assay of chloride-flux inward currents at GABAAR containing single α-subunits (FIG. 12); type: cell-based; settings: dose-response curves, α4 or α6 GABAAR compared to other α-subtypes
Excerpt: Selectivity is quantified by dose-response curves showing greater inward currents (i.e., agonist activity) by action of GABAAR bearing a4 or a6 compared to other α-subtypes.
Two compounds having selective activity bias for α4-GABAAR were identified (FIG. 12). Patch clamp assays were used to quantify chloride flux induced inward currents resulting from agonism of GABAAR containing single α-subunits.

murine tracheal rings = assay: Relaxation of acetylcholine-induced contraction in murine tracheal rings (wild type and GABAA α4 knockout), Example 13; settings: CMD-45 100 uM, 30 minutes, ACh ~EC50; wild type vs GABAA α4 knockout mice; p<0.01 vs vehicle
Excerpt: Adult male C57/B16 wild type mice or adult male mice globally deficient in the GABAA a4 subunit (from Dr. Gregg Homanics, University of Pittsburgh) were euthanized with an overdose of sodium pentobarbital. Tracheas were rapidly removed and placed in modified Krebs-Henseleit buffer of the following composition in mM: 115 NaCl, 2.5 KCl, 1.91 CaCl2, 2.46 MgSO4, 1.38 NaH2PO4, 25 NaHCO3, 5.56 D-glucose: pH 7.4 Connective tissue was removed under a dissecting microscope and tracheas were cut in half axially. One-half trachea was used in each chamber of a myograph bath (DMT: Ann Arbor, Mich.), one-half used for vehicle treatment and the other half used for drug (i.e. CMD-45) treatment. […] Tension was continuously digitally recorded using BioPac hardware connected to Acknowledge software. […] An ACh ˜EC50 was determined for each tracheal ring based on these dose response curves.
In relaxation studies, tracheal ring were contracted to the determined ˜EC50 and force was allowed to plateau. Single concentrations of vehicle (0.1% DMSO) or CMD-45 (100 uM) were added and continuous muscle force was measured over 30 minutes. The data are expressed as the percent of remaining tone at 30 minutes relative to the initial force achieved with the EC50 concentration of acetylcholine. […]

GP tracheal rings = assay: Direct relaxation of guinea pig tracheal rings contracted with TEA or substance P; settings: CM-D-45 200 um, 15 minutes
Method: Male Hartley guinea pigs (approximately 400 g) were anesthetized with intraperitoneal pentobarbital (100 mg/kg). Trachea were removed and dissected under a dissecting microscope into closed rings comprised of two cartilaginous segments. Epithelium was removed by gentle abrasion on the tracheal lumen with cotton. Tissues were placed into cold Krebs-Henseleit (KH) buffer (in mM: NaCl 118, KCl 5.6, CaCl2 0.5, MgSO4 0.24, NaH2PO4 1.3, NaHCO3 25, glucose 5.6, pH 7.4) containing indomethacin 10 uM (DMSO final concentration in organ baths of 0.01%) to block tone due to endogenous release of prostanoids. […]
To determine the direct relaxant effect of α4 subunit containing GABAA receptor activation using different contractile agonists, GP tracheal rings prepared according to Reference Example 3 were contracted with a single dose (10 mM) of TEA or (1 uM) substance P. Following a plateau in the generated muscle force, a single dose of CM-D-45 (200 um) or vehicle control (DMSO 0.1%) was added to the organ bath buffer and the percentage of relaxation achieved was assessed over 15 minutes in comparison to intra-experimental matched vehicle controls.

[5] = system: Guinea pig tracheal rings; assay: Airway smooth muscle force in guinea pig ex vivo tracheal rings, Example 20; settings: added after acetylcholine EC50 contraction
Method: Male (400 g) Dunkin Hartley guinea pigs were anesthetized with 100 mg/kg pentobarbital. Trachea were removed and divided into 8 closed circular rings each comprised of 2 cartilagenous segments. Adventitia and epithelium were dissected off under a microscope. Closed rings were suspended in 2 ml Radnoti organ baths connected to a Grass FT03 force transducer under 1 g resting tension at 37° C. with bubbled oxygenation 95% O2/5% CO2 and allowed to equilibrate for 1 h at resting tension with buffer exchanges every 15 min. Continuous digital recording of airway smooth muscle contractile force was done with Biopac hardware connected to Acknowledge v 7.3.3 software. Preliminary contractile challenges with performed with acetylcholine dose responses (0.1 nM-100 uM) 3 times with buffer exchanges and resetting of resting tension between each dose response. The Guinea pig tracheal rings were contracted with acetylcholine (an EC50 concentration for each ring). Following stabilization of the contractile force, the GABAA α5 selective negative modulator or the GABAA non-selective antagonist gabazine was added to the buffer.

Oc1noc2c1CCNC2 [THIP]
muscle force, % of initial acetylcholine-induced force ([1]; THIP (500 uM) plus isoproterenol, n=8): 22.9 ±13.2% | potentiation of isoproterenol-mediated relaxation [1]: significantly potentiated the relaxant effects of isoproterenol | mean evoked current (GABAA receptors [2]; 10 uM THIP, 11/12 arrays of 20 cells in whole cell configuration): −670.4+27.6 pA | EC50 (GABAA receptors [2]; THIP 0 to 300 uM, voltage clamped at −80 mV, read-out: EC50, current elicited in whole cell configuration): ~15000 nM and 15000 nM | EC50 (GABAA receptors [3]; THIP 0 to 10 mM, low chloride buffer, n=12, read-out: EC50, change in relative fluorescence (membrane potential)): 245000 nM

NCCS(=O)(=O)O [taurine]
potentiation of isoproterenol-mediated relaxation [1]: potentiated isoproterenol-mediated relaxation

CNC(=O)c1ncn2c1[C@@H]1CCCN1C(=O)c1cc(OC)ccc1-2 [CM-D-45, N-methyl (S)-11,12,13,13a-tetrahydro-7-methoxy-9-oxo-9H-imidazo-[1,5-a]pyrrolo-[2,1-c][1,4]-benzodiazepine-1-carboxamide]
membrane polarization, inward rectifying currents (human Jurkat E6-1 cells): hyperpolarizing membrane dose-response signals can be generated | functional selectivity among GABAAR α-subtypes (inward currents, agonist activity) [4]: selectivity bias in favor or α4 and α6-GABAAR | relaxation of an acetylcholine induced contraction (percent of remaining tone) (murine tracheal rings): relaxation of an acetylcholine (Ach) induced contraction in murine tracheal rings from wild-type but not GABAA α4 knockout mice | muscle force, % of initial force remaining after substance P contraction (GP tracheal rings; 1 uM substance P contraction): 61.3% and 61.3±16.9% | muscle force, % of initial TEA-induced force remaining (GP tracheal rings; 10 mM TEA contraction): 54.3% and 54.3±14.3%

COc1ccc(-c2ccc(=N)n(CCCC(=O)O)n2)cc1 [gabazine]
reversal of agonist potentiation of isoproterenol-mediated relaxation ([1]; gabazine pretreatment 15 min prior to acetylcholine): significantly reversed the THIP potentiation of isoproterenol-mediated relaxation; also recorded: significantly reversed the potentiation of isoproterenol-mediated relaxation provided by taurine | muscle force, % of initial acetylcholine-induced force ([1]; gabazine pretreatment, then THIP plus isoproterenol, n=8): 53.1±11.4% | attenuation of THIP induced whole cell currents (GABAA receptors [2]; gabazine with THIP 25 uM, −80 mV): attenuation of the THIP-induced current; also recorded: attenuation of THIP induced whole cell currents

CC(C)NCC(O)c1ccc(O)c(O)c1 (stereo not shown) [isoproterenol]
EC50 ([1]; isoproterenol after a single concentration of 200 uM taurine, n=7): 2.4 nM | EC50 ([1]; isoproterenol after a single concentration of 500 uM THIP, n=8): 7.6 ± 0.5 nM | EC50 ([1]; isoproterenol only (THIP experiment), n=8): 32.8 nM | EC50 ([1]; isoproterenol only (taurine experiment), n=6): 15.8 nM | EC50 ([1]; isoproterenol with 200 uM taurine subsequent to 200 μM gabazine pretreatment, n=7): 4.7 nM | EC50 ([1]; isoproterenol with 500 uM THIP subsequent to 500 μM gabazine pretreatment, n=8): 11.8 ± 0.6 nM | muscle force, % of initial acetylcholine-induced force ([1]; isoproterenol alone at low concentration, n=8): 76.5±8.5%

COCc1ncn2c1CN(C)C(=O)c1cc(Cl)ccc1-2 [PWZ-029]
change in airway smooth muscle force [5]: increase in force

COc1ccc2c(c1)C(=O)N1CCC[C@H]1c1c(C(=O)OC(C)C)ncn1-2
melting point: 215 to 217 °C

picrotoxin
antagonism of THIP-induced fluorescent / membrane potential changes (GABAA receptors [3]): attenuation of THIP-induced fluorescent changes | antagonism of THIP-induced fluorescent / membrane potential changes (GABAA receptors [3]; listed as Picrotoxin): antagonism of THIP mediated membrane potential changes persisted even under conditions of high dose THIP
